As usually defined, the MIC is the lowest concentration found to suppress growth. The low end stands for a more susceptible organism, the high end for a less susceptible organism.

The values below come from US9433211B2, “Antimicrobial agent” (TAIYO CORPORATION, priority 2012, dated 2016).

In brackets after ≈: the same amount, converted by molar mass. Some results are limits rather than exact numbers.

Series [1] relates to yeast (C. albicans, NBRC1594). The series is described as follows: Verification test of antimicrobial effects (minimum inhibitory concentration) on yeast. The class given is cell-based. As to conditions: for Minimum inhibitory concentration / MIC: C. albicans, cultured at 30° C. aerobic four days, visual turbidity, 156-2500 ppm tested; for MIC: 96 h; for antimicrobial activities, comparison in words: against yeast (C. albicans), from the results in Table 1. The method, then: (§1) 0.5 ml of a previously sterilized culture medium (trade name “Potato dextrose liquid culture medium”, made by Nissui Pharmaceutical Co., Ltd. was placed into a 96-well deep type microplate, then the propanediol mono-β-hydroxycarboxylic acid esters (the present invention products 1 to 10), the glycerin mono β-hydroxydecanoic acid ester (comparative product 1), the β-hydroxydecanoic acid potassium (comparative product 2) prepared in the above descriptions of (1) to (5) as well as 1,2-octanediol (comparative product 3), 1,2-propanediol (comparative product 4) and 1,3-propanediol (comparative product 5) known as an auxiliary antiseptic agent for external preparations for skin were respectively added, and the culture medium was diluted in a step-wise manner so that the final concentration in the medium was 156 ppm, 312 ppm, 625 ppm, 1250 ppm, and 2500 ppm to prepare sample solutions.
(§2) To these sample solutions, 0.1 ml of each culture solution of blackmold (A. niger, JCM10254) and yeast (C. albicans, NBRC1594) at approximately 1×10^6 CFU/ml were added, and the solutions were cultured at 30° C. under an aerobic condition for four days. Antimicrobial effects were visually determined. The solutions were compared with test areas in which the above microorganisms had not been added. Test areas in which no turbidity due to growth of the microorganism was observed were determined to have antimicrobial effects, and the lowest concentration necessary for inhibiting the growth of the microorganism (hereinafter referred to as “minimum inhibitory concentration”) was measured.

For series [2], the system named is black mold (A. niger, JCM10254). The series is described as follows: Verification test of antimicrobial effects (minimum inhibitory concentration) on black mold. The settings on record: for Minimum inhibitory concentration / MIC: A. niger, cultured at 30° C. aerobic four days, visual turbidity, 156-2500 ppm tested; for MIC: Aspergillus niger, JCM10254, 96 h; for antimicrobial activities, comparison in words: against black mold (A. niger), from the results in Table 1. The class given is cell-based. The method, then:
as §1, §2

A short description of series [3]: Compounding property in cosmetic, pharmaceutical and industrial formulations. Format: physicochemical. The settings on record: 0.30 weight %. The method, then: Glycerin, DPG, POE (60) hydrogenated castor oil, and 1,3-propanediol mono-β-hydroxydecanoic acid ester were mixed and dissolved by being heated to 70° C. (the resulting mixture was referred to as a mixture A). On the other hand, citrate acid Na, citric acid, glycine, alanine, hyaluronic acid Na, and water were individually mixed at room temperature (the resulting mixture was referred to as a mixture B). Then, the mixture A and the mixture B were combined and mixed at 50° C., and thus a lotion was obtained.
Cetanol, squalane, stearic acid, γ-tocopherol, BHT, polyethylene glycol monostearate (25EO), glycerin stearic acid monoester, and 1,3-propanediol mono-β-hydroxydecanoic acid ester were individually mixed and dissolved by being heated to 70° C. (the resulting mixture was referred to as a mixture A). On the other hand, 1,3-butanediol, carboxy vinyl polymer, and potassium hydroxide were individually mixed at room temperature (the resulting mixture was referred to as a mixture B). Then, the mixture A and the mixture B were combined and heated to 60° C. and were vigorously stirred and emulsified while being gradually added in small quantities to the purified water, and thus a milky lotion was obtained.
With regard to the compounding example 6, pantothenic acid, hyaluronic acid, thioxolone, hydrocortisone acetate, tocopherol, and minoxidil were mixed individually and dissolved by being heated to 70° C. (the resulting mixture was referred to as a mixture A). On the other hand, glycerin, polyoxyethylene glycol monoether, ethanol, and the present invention product 8 (1,3-propanediol mono-β-hydroxydecanoic acid ester) were mixed at room temperature (the resulting mixture was referred to as a mixture B). Then, the mixture A and the mixture B were combined and heated to 70° C. and were vigorously stirred while being added gradually in small quantities to water, and thus a hair growth liquid was obtained.
In preparing the compounding example 11, polyoxyethylene nonylphenylether, polyoxyethylene sorbitan monosterate, BHT, and fragrant material were mixed individually and dissolved by being heated to 80° C. (the resulting mixture was referred to as a mixture A). On the other hand, gellan gum, propylene glycol, the present invention product 8 (1,3-propanediol mono-β-hydroxydecanoic acid ester), and water were mixed at 80° C. (the resulting mixture was referred to as a mixture B). Then, the mixture B was gradually added in small quantities to the mixture A, heated to 80° C., and were vigorously stirred, and thus a transparent aqueous aromatic agent for vehicles was obtained.

Where [4] appears, read: hair growth liquid (compounding example 6).
[5] abbreviates: transparent aqueous aromatic agent for vehicles (compounding example 11).

Regarding `CCCCCCCC(O)CC(=O)OCC(O)CO` (stereo not drawn) [Comparative product 1, glycerin mono β-hydroxydecanoic acid ester, reference compound], the values for the Minimum inhibitory concentration in series [1] and in series [2] were over 2500 ppm and 2500 ppm, respectively.
With `CCCCCCCC(O)CC(=O)O.[K]` (stereo not drawn) [Comparative product 2, β-hydroxydecanoic acid potassium, reference compound], the MIC in series [1] amounted to 2500 µg/mL; in series [2], 1250 µg/mL.
Taken in the same sequence, the figures for `CCCCCCC(O)CO` (stereo not shown) [Comparative product 3, 1,2-octanediol, reference compound] were 2500 µg/mL (≈ 17100 µM) and 2500 µg/mL (≈ 17100 µM).
On to `CC(O)CO` (stereo not shown) [Comparative product 4, 1,2-propanediol, reference compound], for which the Minimum inhibitory concentration in series [1] and in series [2] was over 2500 ppm each time. The “antimicrobial activities, comparison in words” value (“antimicrobial activities” below) in series [1] and in series [2] was “lower antimicrobial activities” each time.
On to `OCCCO` [Comparative product 5, 1,3-propanediol, reference compound], for which, in series [1], the Minimum inhibitory concentration is over 2500 ppm and the “antimicrobial activities” value is reported as “lower antimicrobial activities”. Also, in series [2], the Minimum inhibitory concentration is given as over 2500 ppm and the “antimicrobial activities” value is reported as “lower antimicrobial activities”.
Consider `CCCCCCCCCC(O)CC(=O)OCC(C)O` (stereo not drawn) [Present invention product 1, 1,2-propanediol mono-β-hydroxydodecanoic acid ester], for which the MIC in series [1] and in series [2] was 312 µg/mL (≈ 1140 µM) in each case.
On to `CCCCCCCCC(O)CC(=O)OCC(C)O` (stereo not drawn) [Present invention product 2, 1,2-propanediol mono-β-hydroxyundecanoic acid ester], for which the minimum inhibitory concentration (MIC) in series [1] and in series [2] was 312 µg/mL (≈ 1200 µM) in each case.
As to `CCCCCCCC(O)CC(=O)OCC(C)O` (stereo not drawn) [Present invention product 3, 1,2-propanediol mono-β-hydroxydecanoic acid ester], the minimum inhibitory concentration (MIC) was found to be 625 µg/mL (≈ 2540 µM) in series [1] and 312 µg/mL (≈ 1270 µM) in series [2]. The “antimicrobial activities” value in series [1] and in series [2] was “very stronger antimicrobial activities” throughout.
As for `CCCCCCC(O)CC(=O)OCC(C)O` (stereo not drawn) [Present invention product 4, 1,2-propanediol mono-β-hydroxynonanoic acid ester], the Minimum inhibitory concentration in series [1] and in series [2] was 1250 ppm each time.
Turning to `CCCCCC(O)CC(=O)OCC(C)O` (stereo not drawn) [Present invention product 5, 1,2-propanediol mono-β-hydroxyoctanoic acid ester], in series [1], the Minimum inhibitory concentration was over 2500 ppm and the “antimicrobial activities” value is recorded as “lower than 1,2-octanediol”. The molecule also had a Minimum inhibitory concentration in series [2] of 2500 ppm.
As to `CCCCCCCCCC(O)CC(=O)OCCCO` (stereo not drawn) [Present invention product 6, 1,3-propanediol mono-β-hydroxydodecanoic acid ester], the MIC in series [1] is 312 µg/mL (≈ 1140 µM); in series [2], 156 µg/mL (≈ 569 µM).
In the case of `CCCCCCCCC(O)CC(=O)OCCCO` (stereo not drawn) [Present invention product 7, 1,3-propanediol mono-β-hydroxyundecanoic acid ester], the MIC in series [1] and in series [2] was 312 µg/mL (≈ 1200 µM) each time.
Turning to `CCCCCCCC(O)CC(=O)OCCCO` (stereo not drawn) [Present invention product 8, 1,3-propanediol mono-β-hydroxydecanoic acid ester], the “compounding property: mixing with other components” value in series [3] (setting [4]), in series [3] (lotion) and in series [3] (setting [5]) was “easily mixed with other components” each time. Moreover, the “compounding property: turbidity or precipitation in the obtained product” value in series [3] (setting [4]), in series [3] (lotion) and in series [3] (setting [5]) was “not found” each time. The figures for the MIC in series [1] and in series [2] were 625 µg/mL (≈ 2540 µM) and 312 µg/mL (≈ 1270 µM), respectively. The “antimicrobial activities” value in series [1] and in series [2] was “very stronger antimicrobial activities” throughout.
Turning to `CCCCCCC(O)CC(=O)OCCCO` (stereo not drawn) [Present invention product 9, 1,3-propanediol mono-β-hydroxynonanoic acid ester], the Minimum inhibitory concentration in series [1] and in series [2] was 1250 ppm in each case.
Take `CCCCCC(O)CC(=O)OCCCO` (stereo not drawn) [Present invention product 10, 1,3-propanediol mono-β-hydroxyoctanoic acid ester]: in series [1], the Minimum inhibitory concentration was over 2500 ppm and the “antimicrobial activities” value was “lower than 1,2-octanediol”. This molecule also returned a Minimum inhibitory concentration in series [2] of 2500 ppm.
